Assay results reported in patent US4638070A, “Heterocyclic amino-alcohol derivatives” (Continental Pharma, priority 1980, dated 1987).

How the values were obtained:
[1] = tested on: guinea-pig ileum (histamine contractions); test: Antispasmodic activity in vitro, contractions caused by histamine; settings: added 15 minutes before spasm-producing agent
Description: (§1) (4) The antispasmodic activity was measured in vitro, on guinea-pig ileum, the contractions of which were caused by histammne (Hist.), acetylcholine (Achol) or barium chloride (BaCl2). The tested products were added to perfusion bath 15 minutes before the spasm-producing agents.
(§2) The dose is given in micograms (μg) per ml of bath causing complete spasm inhibition.

[2] = Acute toxicity, oral, LD50 (Litchfield and Wilcoxon); settings: mouse, in vivo, fasted male mice, confidence limits p=95% in brackets
Description: (1) The acute toxicity was determined on fasted male mice. The tested substances were orally administered and LD50 values (lethal dose for 50% of animals) were calculated according to the method of Litchfield and Wilcoxon (J. Pharmacol. exp. Ther. 96, 94-113, 1949). These LD50 values are given in mg/kg and also, when possible, with their confidence limits for p=95%.

femoral artery = test: Vasodilator activity, femoral artery (technique of perfused paw); assay type: in vivo; set-up: key: O: no action; +: slight activity; ++: effect equal to half the effect of papaverine; +++: effect equal to that of papaverine; ++++: effect higher than that of papaverine; settings: intra-arterial, 30 mg/kg, anaesthetized dog, vs papaverine at same dose
Description: (3) The vasodilator activity was measured at the level of femoral artery on anaesthetized dog (technique of perfused paw). The tested substances were given intra-arterially at the rate of 30 mg/kg. Results are expressed with respect to papaverine tested at the same dose.
++: effect equal to half the effect of papaverine.
+++: effect equal to that of papaverine.
++++: effect higher than that of papaverine.

[3] = tested on: guinea-pig ileum (acetylcholine contractions); test: Antispasmodic activity in vitro, contractions caused by acetylcholine; settings: added 15 minutes before spasm-producing agent
Description: as §1, §2

SMILES	ANTISPASMODIC ACTIVITY HIST. (dose causing complete spasm inhibition) [1] [μg per ml]	LD50 [2] [mg/kg]	VASODILATOR ACTIVITY (femoral artery)	ANTISPASMODIC ACTIVITY ACHOL (dose causing complete spasm inhibition) [3] [μg per ml]
CC(NCCOc1ccc2ccccc2c1)C(O)c1ccc2c(c1)CCCS2 (centres unmarked) [No 88]	1.7	> 4000	+++	1.7
CC(NC12CC3CC(CC(C3)C1)C2)C(O)c1ccc2c(c1)CCCS2 (centres unmarked) [No 52]	1.7		+++	1.7
CCCCCCCCNC(C)C(O)c1ccc2c(c1)CC(C)CS2 (centres unmarked) [No 43]	0.8	3300	+++	1.7
CC(CCCc1ccccc1)NC(C)C(O)c1ccc2c(c1)CCC2 (centres unmarked) [No 173]	0.8	2600	++	0.8
CC(NCCOCc1ccccc1)C(O)c1ccc2c(c1)CCCS2 (centres unmarked) [No 46]	8.3	4000	+++	3.3
CCCCCCCCNC(C)C(O)c1ccc2c(c1)CCCC2 (centres unmarked) [No 170]	1.7	~2300	+++	0.8
CC1CSc2ccc(C(O)C(C)NCCCc3ccccc3)cc2C1 (centres unmarked) [No 48]	0.8	> 4000		1.7
CC(C)NC(C)C(O)c1ccc2c(c1)CCCCS2 (centres unmarked) [No 38]	3.3	240	++	8.3
CC(CCCc1ccccc1)NC(C)C(O)c1ccc2c(c1)CC(C)O2 (centres unmarked) [No 82]	0.3		++	1.7
COc1ccc(OCCNC(C)C(O)c2ccc3c(c2)CCCS3)cc1 (centres unmarked) [No 53]	3.3	> 4000	+++	1.7
CCCCCCCCNC(CC)C(O)c1ccc2c(c1)CCCS2 (centres unmarked) [No 128]		> 4000		
CC(CCCc1ccccc1)NC(C)C(O)c1ccc2c(c1)CCS2 (centres unmarked) [No 63]	0.8	1850	++	0.8
CCCCSCCCNC(C)C(O)c1ccc2c(c1)SCCO2 (centres unmarked) [No 124]	1.7		++	
CC(NCCOc1ccc2c(c1)CCC2)C(O)c1ccc2c(c1)CCCS2 (centres unmarked) [No 83]	1.7	> 4000	+++	0.8
CC(NCCCCc1ccccc1)C(O)c1ccc2c(c1)CCS2 (centres unmarked) [No 7, 1-(2,3-dihydro-5-benzo[b]thienyl)-2-(4-phenylbutylamino)-1-propanol]		860		
CCCCSCCCNC(C)C(O)c1ccc2c(c1)CCS2 (centres unmarked) [No 125]	1.7	3400	++	
CC(NCCCCc1ccccc1)C(OC(=O)C(C)(C)C)c1ccc2c(c1)CCS2 (centres unmarked) [No 99]	8.3			1.7
CCCCCCCCNC(C)C(OC(=O)CCCCCCC)c1ccc2c(c1)CCCS2 (centres unmarked) [No 136]		> 4000		
COc1ccc(OCCNC(C)C(O)c2ccc3c(c2)CC(C)S3)cc1 (centres unmarked) [No 66]	1.7		++	3.3
CC(NCCCN1CCCC1)C(O)c1ccc2c(c1)CCCS2 (centres unmarked) [No 59]	3.3	1120	+++	3.3
CC(C)NC(C)C(O)c1ccc2c(c1)CCS2 (centres unmarked) [No 33]	16.7	355	+++	16.7

SMILES	ANTISPASMODIC ACTIVITY HIST. (dose causing complete spasm inhibition) [1] [μg per ml]	LD50 [2] [mg/kg]	VASODILATOR ACTIVITY (femoral artery)	ANTISPASMODIC ACTIVITY ACHOL (dose causing complete spasm inhibition) [3] [μg per ml]
CC(NCCCCc1ccccc1)C(O)c1ccc2c(c1)CCCCS2 (centres unmarked) [No 12, 1-(2,3,4,5-tetrahydrobenzo[b]thiepin-7-yl)-2-(4-phenylbutylamino)-1-propanol]		5200		
CC(NCCOc1ccc(C(C)(C)C)cc1)C(O)c1ccc2c(c1)CCCS2 (centres unmarked) [No 107]	0.8	> 4000	+++	0.8
CCCCOCCCNC(C)C(O)c1ccc2c(c1)CCCS2 (centres unmarked) [No 50]	1.7	900	+++	1.7
CC(NC1CCCCC1)C(O)c1ccc2c(c1)CCCS2 (centres unmarked) [No 41]	8.3			8.3
CC(C(O)c1ccc2c(c1)CCC2)N1CCC(c2ccccc2)CC1 (centres unmarked) [No 174]	0.8	2150	+++	
CC(NCCOc1ccc(NS(C)(=O)=O)cc1)C(O)c1ccc2c(c1)CCS2 (centres unmarked) [No 103]	3.3			16.7
CCCCCCCCNC(C)C(O)c1ccc2c(c1)SCCO2 (centres unmarked) [No 121]	0.8		+++	
CC(NCCCN1CCNC1=O)C(O)c1ccc2c(c1)CCCS2 (centres unmarked) [No 56]	> 16.7		++	> 16.7
CCCCOCCOCCCNC(C)C(O)c1ccc2c(c1)CCCS2 (centres unmarked) [No 72]	1.7	880	++	1.7
CC(NCCOc1ccc(C(C)(C)C)cc1)C(O)c1ccc2c(c1)CCC2 (centres unmarked) [No 176]	0.17	> 4000	+++	0.8
CC(NCCCCSc1ccccc1)C(O)c1ccc2c(c1)CCS2 (centres unmarked) [No 31]	0.17	> 4000		1.7
CC(=O)Nc1ccc(OCCNC(C)C(O)c2ccc3c(c2)CCS3)cc1 (centres unmarked) [No 86]	1.7	1420	+++	16.7
CC(C(O)c1ccc2c(c1)CCCS2)N1CCC(c2ccccc2)CC1 (centres unmarked) [No 91]	0.8		+++	1.7
CC(=O)Nc1ccc(OCCNC(C)C(O)c2ccc3c(c2)CCCS3)cc1 (centres unmarked) [No 87]	8.3		+++	16.7
COC(=O)CCCCCCCCCCNC(C)C(O)c1ccc2c(c1)CCCS2 (centres unmarked) [No 73]	3.3	> 4000	+++	1.7
CCCCCCCCNC(C)C(O)c1ccc2c(c1)CC(C)S2 (centres unmarked) [No 18]		3350		
COC(=O)c1ccc(OCCNC(C)C(O)c2ccc3c(c2)CCCS3)cc1 (centres unmarked) [No 114]	0.8	> 2000	+++	3.3
CC(NC1CC1)C(O)c1ccc2c(c1)CCCS2 (centres unmarked) [No 51]	8.3		++	16.7
Cc1ccc(OCCNC(C)C(O)c2ccc3c(c2)CC(C)S3)cc1 (centres unmarked) [No 79]	1.7			0.8
CCCCCCCCNC(CC)C(O)c1ccc2c(c1)CCS2 (centres unmarked) [No 119]	0.3	1800	++++	
